The experiment deals with T1, wild-type HIV-1 protease (Human immunodeficiency virus type 1 group M subtype B, UniProt P04585).
T1 construct: Escherichia coli expressed wild-type HIV-1 protease protein
In words: Assay for Inhibition of Microbial Expressed HIV Protease (peptide substrate cleavage, LC-MS/MS readout). It is filed as biochemical. The following applies: E. coli expressed wild-type HIV-1 protease, mean of at least two independent experiments, read-out: HIV Pr Enzyme HIV1 PR IC50. The method, boiled down:
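E. coli-expressed wild-type HIV-1 protease ([…]) was preincubated with inhibitor 30 min at room temperature in pH 5.5 acetate buffer (100 mM NaCl, 0.1% BSA). Then 400 μM octapeptide substrate was added and reacted 1 h at 30 °C; inhibition came from LC-MS/MS product peak areas, mean of ≥2 experiments.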

Molecules are shown by their SMILES. pIC50: −log10 of the molar value.

As to `CC(C)CCC1(c2ccccc2)NC(=N)N(Cc2ccc(C(F)(F)F)c(C(=O)N3CCC(F)(F)C3)c2)C1=O` (stereo not drawn) [Compound 162, 3-{3-[(3,3-difluoropyrrolidin-1-yl)carbonyl]-4-(trifluoromethyl)-benzyl}-2-imino-5-(3-methylbutyl)-5-phenylimidazolidin-4-one], the negative-log IC50 (pIC50) is 7.49.
Consider `N=C1NC(c2ccccc2)(c2ccccc2)C(=O)N1Cc1ccc(Cl)c(C(=O)N2CCNC(=O)C2)c1` [Compound 380, 4-({2-chloro-5-[(2-imino-5-oxo-4,4-diphenylimidazolidin-1-yl)methyl]phenyl}carbonyl) piperazin-2-one], for which the pIC50 is 7.95.
As for `CC(C)CC1(c2ccccc2)NC(=N)N(Cc2cccc(C(=O)N3CCN(c4ccccc4Cl)CC3)c2)C1=O` (stereo not drawn) [Compound 315, 3-(3-{[4-(2-chlorophenyl)piperazin-1-yl]carbonyl}benzyl)-2-imino-5-(2-methylpropyl)-5-phenylimidazolidin-4-one], the figure is 7.28; as for `Cn1cc(-c2ncc3c(n2)CN(C(=O)c2cc(CN4C(=N)N[C@](CCCC(F)(F)F)(c5ccc(F)cc5)C4=O)ccc2C(F)(F)F)C3)cn1` [Compound 15, (5R)-5-(4-fluorophenyl)-2-imino-3-[3-{[2-(1-methyl-1H-pyrazol-4-yl)-5,7-dihydro-6H-pyrrolo[3,4-d]pyrimidin-6-yl]carbonyl}-4-(trifluoromethyl)benzyl]-5-(4,4,4-trifluorobutyl)imidazolidin-4-one], 8.71.
Consider `N=C1NC(c2ccccc2)(c2ccccc2)C(=O)N1Cc1cccc(C(=O)N2Cc3cc(Cl)c(Cl)cc3C2)c1` [Compound 271, 3-{3-[(5,6-dichloro-1,3-dihydro-2H-isoindol-2-yl)carbonyl]benzyl}-2-imino-5,5-diphenylimidazolidin-4-one], for which the pIC50 was 7.55.
On to `COC(=O)N1CCN(C(=O)c2cc(CN3C(=N)NC(c4ccc(F)cc4)(c4ccc(F)cc4)C3=O)ccc2Cl)CC1` [Compound 381, methyl 4-[(5-{[4,4-bis(4-fluorophenyl)-2-imino-5-oxoimidazolidin-1-yl]methyl}-2-chlorophenyl)carbonyl] piperazine-1-carboxylate], for which the negative-log IC50 (pIC50) was 7.91.
With `CC(C)CCC1(c2ccc(F)cc2)NC(=N)N(Cc2ccc(C(F)(F)F)c(C(=O)N3C[C@@H]4C(=O)NC(=O)[C@]4(c4ccccc4)C3)c2)C1=O` (stereo partly drawn) [Compound 159, (3aR,6aR)-5-{[5-{[4-(4-fluorophenyl)-2-imino-4-(3-methylbutyl)-5-oxoimidazolidin-1-yl]methyl}-2-(trifluoromethyl)-phenyl]carbonyl}-3a-phenyltetrahydropyrrolo [3,4-c]pyrrole-1,3 (2H,3aH)-dione], the negative logarithm of the IC50 (pIC50) was 7.80.
To `N=C1N[C@](CCCC(F)(F)F)(c2ccc(F)cc2)C(=O)N1Cc1ccc(C(F)(F)F)c(C(=O)N2Cc3cnc(C(F)(F)F)nc3C2)c1` [Compound 73, (5R)-5-(4-fluorophenyl)-2-imino-5-(4,4,4-trifluorobutyl)-3-[4-(trifluoromethyl)-3-{[2-(trifluoro-methyl)-5,7-dihydro-6H-pyrrolo-[3,4-d]pyrimidin-6-yl]carbonyl}-benzyl]imidazolidin-4-one] belongs 8.03; to `CC(C)CC(c1ccc(C(F)(F)F)c(C(=O)N2CCn3c(nnc3C(F)(F)F)C2)c1)N1C(=N)N[C@](C[C@@H]2CCOC2)(c2ccc(F)cc2)C1=O` (stereo partly drawn) [Compound 42, (5R)-5-(4-fluorophenyl)-2-imino-3-{3-methyl-1-[4-(trifluoromethyl)-3-{[3-(trifluoromethyl)-5,6-dihydro-[1,2,4]triazolo[4,3-a]pyrazin-7(8H)-yl]carbonyl}phenyl]butyl}-5-[(3R)-tetrahydrofuran-3-ylmethyl]-imidazolidin-4-one], 8.37.
`N=C1N[C@](CCCC(F)(F)F)(c2ccc(F)cc2)C(=O)N1Cc1ccc(C(F)(F)F)c(C(=O)N2CCN(CC(F)(F)F)CC2)c1` [Compound 127, (5R)-5-(4-fluorophenyl)-2-imino-5-(4,4,4-trifluorobutyl)-3-[3-{[4-(2,2,2-trifluoroethyl)piperazin-1-yl]carbonyl}-4-(trifluoromethyl)-benzyl]imidazolidin-4-one]: the negative-log IC50 (pIC50) is 7.19.
On to `N=C1NC(c2ccccc2)(c2ccccc2)C(=O)N1Cc1ccc(Cl)c(C(=O)N2CCC(n3c(=O)[nH]c4ccccc43)CC2)c1` [Compound 383, 1-[1-({2-chloro-5-[(2-imino-5-oxo-4,4-diphenylimidazolidin-1-yl)methyl]phenyl}carbonyl)piperidin-4-yl]-1,3-dihydro-2H-benzimidazol-2-one], for which the pIC50 is 7.83.
As for `N=C1N[C@](CCC2CC2)(c2ccc(F)cc2)C(=O)N1C(CCc1ccccc1)c1ccc(C(F)(F)F)c(C(=O)N2Cc3nccnc3C2)c1` (stereo partly drawn) [Compound 3, (5R)-5-(2-cyclopropylethyl)-3-{1-[3-(5,7-dihydro-6H-pyrrolo[3,4-b]pyrazin-6-ylcarbonyl)-4-(trifluoromethyl)phenyl]-3-phenylpropyl}-5-(4-fluorophenyl)-2-iminoimidazolidin-4-one], the pIC50 was 9.77.
As to `COCC(=O)N1CCN(C(=O)c2cc(CN3C(=N)N[C@](CCCC(F)(F)F)(c4ccc(F)cc4)C3=O)ccc2C(F)(F)F)CC1` [Compound 112, (5R)-5-(4-fluorophenyl)-2-imino-3-[3-{[4-(methoxyacetyl)piperazin-1-yl]carbonyl}-4-(trifluoromethyl)benzyl]-5-(4,4,4-trifluorobutyl)imidazolidin-4-one], the negative logarithm of the IC50 (pIC50) was 7.51.
To `N=C1NC(c2ccccc2)(c2ccccc2)C(=O)N1Cc1cccc(C(=O)N2CCC(Oc3ccccc3)CC2)c1` [Compound 333, 2-imino-3-{3-[(4-phenoxypiperidin-1-yl)carbonyl]benzyl}-5,5-diphenylimidazolidin-4-one] belongs 7.16; to `COC(=O)N1CCN(C(=O)c2ccnc(CN3C(=N)NC(CCC(C)C)(c4ccccc4)C3=O)c2)CC1` (stereo not drawn) [Compound 405, methyl 4-[(2-{[2-imino4-(3-methylbutyl)-5-oxo-4-phenylimidazolidin-1-yl]methyl}pyridin-4-yl)carbonyl]piperazine-1-carboxylate], 7.09.
As to `N=C1NC(c2ccccc2)(c2ccccc2)C(=O)N1Cc1ccc(F)c(C(=O)N2Cc3cncnc3C2)c1` [Compound 385, 3-[3-(5,7-dihydro-6H-pyrrolo[3,4-d]pyrimidin-6-ylcarbonyl)-4-fluorobenzyl]-2-imino-5,5-diphenylimidazolidin-4-one], the pIC50 was 7.59.
Regarding `C[C@H](c1cccc(C(=O)N2Cc3ccccc3C2)c1)N1C(=N)NC(c2ccc(F)cc2)(c2ccc(F)cc2)C1=O` [Compound 231, 3-{(1R)-1-[3-(1,3-dihydro-2H-isoindol-2-ylcarbonyl)phenyl]ethyl}-5,5-bis(4-fluorophenyl)-2-iminoimidazolidin-4-one], the pIC50 was 7.88.
Turning to `COC(=O)Nc1ncc2c(n1)CN(C(=O)c1cc(CN3C(=N)NC(CCC(C)C)(c4ccccc4)C3=O)ccc1C(F)(F)F)C2` (stereo not drawn) [Compound 137, methyl (6-{[5-{[2-imino-4-(3-methylbutyl)-5-oxo-4-phenylimidazolidin-1-yl]methyl}-2-(trifluoromethyl)phenyl]carbonyl}-6,7-dihydro-5H-pyrrolo[3,4-d]pyrimidin-2-yl)carbamate], the pIC50 was 8.73.

Source of the values: patent US20200069691A1, “HETEROCYCLIC COMPOUNDS AS HIV PROTEASE INHIBITORS” (Merck Sharp & Dohme Corp., priority 2016, published 2020).
